According to article PMC4713475, “In Vivo Differences between Two Optical Isomers of Radioiodinated o-iodo-trans-decalinvesamicol for Use as a Radioligand for the Vesicular Acetylcholine Transporter” (PLoS ONE, 2016):
Like-named read-outs stand apart in the source and are kept apart here.

Key:
VAChT = molecular target: T1, VAChT (Rattus norvegicus, UniProt Q62666); assay: VAChT in vitro competitive binding with (-)-[3H]vesamicol in rat brain preparations; details: read-out: Ki VAChT
T1 construct: The rats were sacrificed 60 minutes after injection and their brains collected; from tissue; host or cells: brain of live male Sprague-Dawley rats (in vivo)
T1 sequence (Q62666 1-530): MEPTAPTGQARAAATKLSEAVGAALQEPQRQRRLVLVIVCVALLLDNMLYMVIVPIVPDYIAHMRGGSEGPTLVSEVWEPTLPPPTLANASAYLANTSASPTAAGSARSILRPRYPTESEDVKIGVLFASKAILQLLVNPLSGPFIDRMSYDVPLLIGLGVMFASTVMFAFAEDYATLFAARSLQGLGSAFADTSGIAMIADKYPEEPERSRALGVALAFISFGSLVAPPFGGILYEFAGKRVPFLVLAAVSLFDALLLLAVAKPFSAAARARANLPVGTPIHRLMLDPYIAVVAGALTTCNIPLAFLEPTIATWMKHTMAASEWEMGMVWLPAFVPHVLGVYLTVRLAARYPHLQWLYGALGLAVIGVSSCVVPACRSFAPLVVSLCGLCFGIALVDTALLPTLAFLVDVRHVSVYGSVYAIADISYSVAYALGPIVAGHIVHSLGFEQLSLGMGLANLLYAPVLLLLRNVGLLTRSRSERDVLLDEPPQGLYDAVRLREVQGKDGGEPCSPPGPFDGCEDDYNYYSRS

σ-2 receptor = molecular target: T2, σ-2 receptor (Rattus norvegicus, UniProt Q5U3Y7); assay: σ-2 receptor competitive binding with [3H]DTG in rat liver preparations; details: read-out: Ki σ-2
T2 construct: Rat liver preparations (about 100 μg protein) were incubated in quadruplicate; from tissue; host or cells: liver of male Sprague-Dawley rats
T2 sequence (Q5U3Y7 1-176): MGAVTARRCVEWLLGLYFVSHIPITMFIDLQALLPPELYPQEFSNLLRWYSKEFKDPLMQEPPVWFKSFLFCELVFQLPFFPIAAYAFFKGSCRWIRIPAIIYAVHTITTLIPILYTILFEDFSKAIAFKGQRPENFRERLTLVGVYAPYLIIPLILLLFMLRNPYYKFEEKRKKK
Description: Rat brain and liver tissue preparations were prepared from dissected brains (not including the cerebellum) and livers from male Sprague-Dawley rats (250–300 g), as previously described[34].
The incubated samples were treated in the same manner as described for the σ-1 receptor binding assay.
(§1) Ki values were calculated using Graphpad Prism (GraphPad Software, Inc. San Diego, USA).

σ-1 receptor = σ-1 receptor (Rattus norvegicus, UniProt Q9R0C9); assay: σ-1 receptor competitive binding with (+)-[3H]pentazocine in rat cerebrum preparations
Chain of σ-1 receptor (Q9R0C9 whole entry): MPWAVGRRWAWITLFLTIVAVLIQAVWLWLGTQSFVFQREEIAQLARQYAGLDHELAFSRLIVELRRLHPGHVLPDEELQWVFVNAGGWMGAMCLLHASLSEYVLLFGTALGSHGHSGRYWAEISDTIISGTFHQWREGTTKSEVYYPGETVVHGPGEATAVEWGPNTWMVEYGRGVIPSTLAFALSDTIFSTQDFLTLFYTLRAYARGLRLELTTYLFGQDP
Description: The incubated samples were treated in the same manner as described for the VAChT binding assays, except that Whatman GF/B glass fiber filters were used.
as §1

[1] = set-up: method as in PMID 24174343; details: previous report; cited from earlier work

Question: Which results are given for `O[C@@H]1C[C@H]2CCCC[C@@H]2C[C@H]1N1CCC(c2ccccc2I)CC1` [(-)-OIDV]?
Answer: Ki (VAChT): 0.0221 ± 0.0043 µM; Ki (σ-2 receptor): 0.0599 ± 0.0106 µM; Ki (σ-1 receptor): 0.168 ± 0.0472 µM

Question: For `OC1CC2CCCCC2CC1N1CCC(c2ccccc2)CC1` (stereo not shown) [DV, decalinvesamicol], which Ki (VAChT; rat brain preparations, (-)-[3H]vesamicol, 200 nM DTG to mask sigma receptors, 37°C 60 min, mean ± SD) is on record?
Answer: Its Ki is 0.0086 ± 0.0025 µM.

Question: What about the Ki (σ-2 receptor; rat liver preparations, 5 nM [3H]DTG, 1 μM (+)-pentazocine to mask σ-1, 37°C 90 min, mean ± SD) of the same molecule?
Answer: Its Ki is 0.0659 ± 0.0121 µM.

Question: What about the Ki (σ-1 receptor; read-out: Ki σ-1, rat cerebrum preparations, 5 nM (+)-[3H]pentazocine, 37°C 90 min, mean ± SD) of the same molecule?
Answer: Its Ki is 0.0744 ± 0.012 µM.

Question: For `OC1C[C@@H]2CCCC[C@H]2CC1N1CCC(c2ccccc2[125I])CC1` (mixture of isomers) [racemic [^125I]OIDV], which “radiolabeled metabolites in the brain” value [1] is on record?
Answer: Its value is “unable to observe the presence of radiolabeled metabolites in the brain”.
